# Results taken from patent publication US20150087053A1, “COMPOSITIONS AND METHODS FOR INCREASING THE EXPRESSION AND SIGNALLING OF PROTEINS ON CELL SURFACES” (THE JOHNS HOPKINS UNIVERSITY, priority 2013, published 2015).
# “Also recorded” adds a separate entry of the source.
# Tests used:
# mOREG = molecular target: T1, mOREG (Mus musculus, UniProt Q920P2); assay: CRE luciferase reporter assay (Firefly:Renilla ratio), mOREG constructs; format: cell-based, murine; conditions: Rho-mOREG, Lucy-mOREG, no RTP1S, 100-300 μM eugenol
# T1 construct: The mOR-EG full-length construct, containing N-terminal Flag/Rho tags; only in the L-EG and L-R-EG constructs) (N, cleaved yes); expressed in transfected cells; host or cells: HEK293T
# T1 sequence (Q920P2 1-313): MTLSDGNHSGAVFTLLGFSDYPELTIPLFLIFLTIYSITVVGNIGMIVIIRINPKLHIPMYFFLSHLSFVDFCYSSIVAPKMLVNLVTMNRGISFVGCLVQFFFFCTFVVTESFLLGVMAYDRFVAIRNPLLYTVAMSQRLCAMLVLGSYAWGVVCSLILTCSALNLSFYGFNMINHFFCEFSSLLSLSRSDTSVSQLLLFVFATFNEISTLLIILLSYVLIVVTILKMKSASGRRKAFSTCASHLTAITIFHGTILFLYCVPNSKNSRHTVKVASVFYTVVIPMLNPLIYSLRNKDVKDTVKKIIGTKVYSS
# Experimental: The luciferase assay was performed as previously described. Briefly, ORs were transfected into HEK293T cells along with constructs encoding for CREB-dependent luciferase (Firefly) and a constitutively expressed luciferase (Renilla). OR activation leads to a rise in cAMP which drives an increase in Firefly luciferase expression. Firefly activity is normalized to the activity of the Renilla luciferase to control for variation in cell number and transfection efficiency. Data were collected using a FLUOstar Omega automated platereader (BMG LabTech, Cary, N.C.). For some experiments, RTP1S was also transfected.
# One-way ANOVA analysis followed by the Student-Newman Keuls test was performed on the luciferase reporter assay to compare the doses of isovaleric acid (0.1-5 mM) or eugenol (100-300 μM) to the non-treated control (0 μM). As each condition was performed in triplicate, the analyses were done with an n=3, and P values ≦0.05 were deemed significant. One-way ANOVE followed by Student-Newman Keuls was also used to analyze the surface expression data in FIG. 7. […]
# As mOREG is one of the ORs that reach the cell surface under every condition tested, we expressed the OR with and without the Lucy and Rho tags and assessed its response to eugenol.
# Olfr691 = molecular target: T2, Olfr691 (Mus musculus, UniProt Q8VGW5); assay: CRE luciferase reporter assay (Firefly:Renilla ratio), Olfr691 constructs; conditions: 0.1-5 mM isovaleric acid
# T2 sequence (Q8VGW5 1-322): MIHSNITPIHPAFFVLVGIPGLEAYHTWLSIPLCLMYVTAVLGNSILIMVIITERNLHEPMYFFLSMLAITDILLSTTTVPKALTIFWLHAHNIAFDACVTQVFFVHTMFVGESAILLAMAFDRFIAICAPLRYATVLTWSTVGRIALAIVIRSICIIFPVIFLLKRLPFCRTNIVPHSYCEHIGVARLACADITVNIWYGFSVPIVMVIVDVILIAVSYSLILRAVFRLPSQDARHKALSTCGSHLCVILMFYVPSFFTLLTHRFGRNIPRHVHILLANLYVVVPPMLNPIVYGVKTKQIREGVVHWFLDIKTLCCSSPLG
Structure (SMILES),OR activation (Firefly:Renilla ratio) (mOREG),OR activation (Firefly:Renilla ratio) (Olfr691; Lucy-Rho-Olfr691 with and without RTP1S),OR activation (Firefly:Renilla ratio) (Olfr691; Rho-Olfr691 co-expressed with RTP1S),OR activation (Firefly:Renilla ratio) (Olfr691; Rho-Olfr691 without RTP1S)
C=CCc1ccc(O)c(OC)c1 [eugenol],all concentrations of eugenol significantly activated; also recorded: dose-dependent activation,–,–,–
CC(C)CC(=O)O [isovaleric acid],–,responded to isovaleric acid in a dose-dependent manner,dose-dependent increase in the Firefly:Renilla ratio,no concentrations of isovaleric acid activated R-691; also recorded: not significantly activated at any concentration
